From patent US20120135089A1, “E3 LIGASE INHIBITORS” (priority 2009, published 2012)
Structures can show the parent of a compound that is named as a salt. Non-standard residues stand in square brackets, D forms with d. Residues, ends and D or L forms follow the SMILES beside them. *: point of attachment. Nle = CCCC[C@H](N)C(=O)O; Cbz = O=C(OCc1ccccc1)*

How the values were obtained:
[1] = molecular target: T1, Mdm2-luciferase fusion protein (Homo sapiens, UniProt Q00987); assay: cell-based Mdm2 auto-ubiquitination luminescence assay, Mdm2-luciferase cell line; settings: 384-well format
T1 construct: Using full-length Mdm2 allowed for the presence of all domains of Mdm2; expressed in transfected cells
Description: (§1) Cells were plated in 384-well format and treated with MG132 (2 hours) or cycloheximide (30 minutes). Steadylite luminescence buffer (PerkinElmer) was added and the relative luminescence levels determined on a Victor3 Plate Reader. Each graph represents the median of 5 replicates normalized to a no treatment control, and one standard deviation is shown. […] The graphs and EC50 values were determined using Graphpad PRISM®. […] U2OS, RKO, and HCT116 cells (p53 wild-type) were incubated with 5 μg/ml (14 μM) of MEL23, 5 μg/ml (15 μM) of MEL24, or 10 μM of MG132 for 6 hours. Cells were lysed and analyzed by Western blotting using anti-Mdm2, anti-p53, and anti-eIF4E antibodies. NT indicates a no treatment control. […] MCF7 cells (p53 wild-type) were incubated with 30 μg/ml (51 μM) etoposide alone or in combination with 50 μM AlIn or 5 μg/ml (14 μM) MEL23, or 5 μg/ml (15 μM) MEL24 for 16 hours. Cells were lysed and analyzed by Western blotting using anti-MDMX and anti-actin antibodies.
The Mdm2-luciferase cell line was seeded at 7,500 cells per well, in 384-well white plates (PerkinElmer, Waltham, Mass., Cat. No. 6007688), in 27 μl of media (DMEM with FBS and P/S). Assay plates with cells were incubated at 37° C. overnight to allow cells to adhere. After 24 hours, 2 μl from the ‘mother’ plate (4 mg/ml) was transferred to a ‘daughter plate’ containing 148 μl media in order to dilute the compound 1:75. Next, 3 μl from each well of the ‘daughter plates’ was added to triplicate assay plates for a final concentration of 5.33 μg/ml. Assay plates were incubated at 37° C. for 2 hours. Then the cells were lysed with the addition of 30 μl of luminescence buffer (PerkinElmer, Cat. No. 6016989), and the plates were incubated at room temperature for 30 minutes before being analyzed on a Victor3 Plate Reader (PerkinElmer) for luminescence. […] All repurchased compounds were tested in a 2-fold dilution series via the same protocol as the primary screening. All transfers were conducted using a BioMek (Beckman Coulter, Fullerton, Calif.). […] This was determined by comparing the negative control, no treatment, to the positive control, 10 μM MG132.
To identify Mdm2 E3 ligase inhibitors, a high-throughput cellular assay to measure changes in Mdm2 auto-ubiquitination and degradation was designed. This assay took advantage of the fact that Mdm2 can regulate itself in cells through ubiquitination and degradation (8). Two fusion proteins were constructed for the assay: (a) a wild-type Mdm2-luciferase fusion protein, which can auto-ubiquitinate and thereby target itself for degradation; and (b) a mutant Mdm2(C464A)-luciferase fusion protein. Both fusion proteins were constructed with luciferase N-terminal to Mdm2. The C464A mutation disrupts a metal binding site in the RING domain, thereby preventing Mdm2 E3 ligase activity (8). Small molecules that increase the luminescence of the Mdm2-luciferase fusion protein without increasing the luminescence of the Mdm2(C464A)-luciferase fusion protein are likely inhibiting Mdm2 E3 ligase activity or the proteasomal degradation of Mdm2. Alternatively, small molecules that increase the luminescence of both fusion proteins are likely affecting transcription, translation, or have a general cellular impact that is not dependent on the E3 ligase activity of Mdm2 or proteasomal degradation.

[2] = system: Mdm2 and p53 levels; assay: Western blot of Mdm2 and p53 protein levels in cell lines; assay type: cell-based, human; settings: 6 hours; for p53 levels in RKO and RKO-E6 cells: isogenic RKO and RKO-E6 (HPV-E6) cells
Description: as §1
(§2) H1229 cells were transfected with Mdm2-Flag or remained untransfected. Cells were treated with 5 μg/ml (14 μM) MEL23, 5 μg/ml (15 μM) MEL24, 10 μM MG132, or 1 μg/ml of doxorubicin for 6 hours. Cells were lysed and analyzed by Western blotting using anti-Mdm2 and anti-actin antibodies. The lower band indicated with a star seen with the Mdm2 antibody is a non-specific band. NT indicates a no treatment control. […] RKO and RK0-E6 cells were treated with 5 μg/ml (14 μM) MEL23, 5 μg/ml (15 μM) MEL24, 10 μM MG132, 0.5 μg/ml doxorubicin, 0.5 μg/ml camptothecin or 25 μg/ml Etoposide for 6 hours. Cells were lysed and analyzed by Western blotting using anti-Mdm2, anti-p53, and anti-actin antibodies. The lower band indicated with a star seen with the anti-Mdm2 antibody is a non-specific band. […] RKO cells were treated with 5 μg/ml (14 μM) MEL23, 5 μg/ml (15 μM) MEL24, 10 μM MG132 or 2 μg/ml doxorubicin for 6 hours. Cells were lysed and analyzed by Western blotting using anti-Mdm2, anti-p53, anti-phospho-Ser15 p53, and anti-eiF4E antibodies.
(§3) Cells were seeded and treated with the indicated compound(s). Cells were lysed after each time point in a buffer of 50 mM TrisHCl pH 7.5, 200 mM NaCl, 0.5% NP-40, and 1 complete mini EDTA-free protease inhibitor cocktail tablet per 10 mL of buffer (Roche, Cat. No. 8360170). Protein content was quantified using a Biorad protein assay reagent (Bio-Rad Laboratories, Hercules, Calif., Cat. No. 500-0006). SDS sample buffer was added to the samples, and the mixture was boiled for 5 minutes. Equal amounts of protein were resolved on a 1D SDS-PAGE gel. Following separation proteins were transferred to nitrocellulose membrane, blocked with 5% milk, and then incubated with primary antibody overnight at 4° C. The membrane was incubated with secondary-HRP antibody for 45 minutes at room temperature and developed with SuperSignal West Pico Substrate (Pierce, Rockford, Ill., Cat. No. 34080).
Cells were lysed and analyzed by Western blotting using anti-Mdm2, anti-p53, and anti-actin antibodies. The lower band seen with the Mdm2 antibody is a non-specific band. NT indicates no treatment control.
Referring now to FIG. 28e, endogenous Mdm2 and p53 protein levels with MEL17 treatment are shown. Briefly, U2OS, RKO, and HCT116 cells (p53 wild-type) were incubated with 5 μg/ml of MEL17 or 10 μM of MG132 for 6 hours. Cells were lysed and analyzed by Western blotting using anti-Mdm2, anti-p53, and anti-actin antibodies. The lower band seen with the Mdm2 antibody is a non-specific band.

[3] = system: p53 ubiquitination; assay: cell-based p53 ubiquitination assay in H1299 cells; set-up: species or system human; settings: H1299 transfected with p53, Mdm2, ubiquitin; 10 μg/ml pre-treatment, 10 μM MG132
Description: To obtain the results shown in FIG. 4A, Mdm2-luciferase cells were transfected with ubiquitin-HA and treated 8 hours later with 10 μg/ml (28 μM) MEL23, 10 μg/ml (31 μM) MEL24, or a DMSO control. After 16 hours, cells were additionally treated with 10 μM MG132 or a DMSO control. After 3 hours, cells were lysed and immunoprecipitated for 3 hours with anti-HA affinity matrix. Total lysates and immunoprecipitated samples were analyzed by Western blotting using anti-Mdm2 antibody. NT indicates a no treatment control. […] After 8 hours, cells were treated with 10 μg/ml (28 μM) MEL23, 10 μg/ml (31 μM) MEL24, or a DMSO control. After 16 hours, cells were additionally treated with 10 μM MG132 or a DMSO control. After 3 hours cells were lysed and analyzed by Western blotting using anti-p53 antibody. “p53-Ub” indicates the slower migrating species of the protein that are the ubiquitin-conjugated forms.
To test the effects of the MEL compounds on p53 ubiquitination, H1299 cells were transfected with plasmids expressing p53, Mdm2, and ubiquitin and pre-treated with 10 μg/ml MEL23 or MEL24, followed by treatment with 10 μM MG132. Ubiquitination of p53 was analyzed by Western blotting. […] In fact, the half-life of p53 increased from an hour to greater than 6 hours with 5 μg/ml MEL23 treatment (FIG. 32). Thus, treatment with MEL23 and MEL24 inhibits ubiquitin conjugation to Mdm2 and p53.

[4] = system: MdmX; assay: etoposide-induced MdmX degradation in MCF7 cells (Western blot); assay type: cell-based, human; settings: etoposide 30 μg/ml, 16 hours
Description: as §1, §3

[5] = system: p53-Ser15 phosphorylation; assay: p53-Ser15 phosphorylation in RKO cells (Western blot); assay type: cell-based, human; settings: 6 hours
Description: as §2, §3

T1 sequence (Q00987 whole entry, the tested form may be a part): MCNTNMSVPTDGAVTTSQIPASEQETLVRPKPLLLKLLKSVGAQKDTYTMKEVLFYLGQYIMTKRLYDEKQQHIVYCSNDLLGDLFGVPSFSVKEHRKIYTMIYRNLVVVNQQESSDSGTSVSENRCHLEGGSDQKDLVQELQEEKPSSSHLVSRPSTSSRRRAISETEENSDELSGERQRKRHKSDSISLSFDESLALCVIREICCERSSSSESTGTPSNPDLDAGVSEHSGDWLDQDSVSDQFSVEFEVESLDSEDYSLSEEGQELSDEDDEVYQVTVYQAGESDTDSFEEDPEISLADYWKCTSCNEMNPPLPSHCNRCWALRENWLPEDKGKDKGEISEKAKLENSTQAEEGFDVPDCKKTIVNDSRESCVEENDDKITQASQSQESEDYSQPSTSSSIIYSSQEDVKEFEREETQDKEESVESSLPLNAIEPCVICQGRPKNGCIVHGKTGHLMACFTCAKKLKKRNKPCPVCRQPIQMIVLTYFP

For CC(C)C[C@@H](C=O)NC(=O)[C@H](CC(C)C)NC(=O)[C@H](CC(C)C)NC(=O)OCc1ccccc1 [MG132, Z-Leu-Leu-Leu-aldehyde, reference compound] (Cbz-Leu-Leu-Leu-aldehyde), the “luminescence of the Mdm2-luciferase cell line” value [1] was “increased the levels of the Mdm2-luciferase protein”, the “p53 levels in RKO and RKO-E6 cells” value [2] was “increased p53 in both cell lines” and the “p53 ubiquitination in cells” value [3] was “significant increase in p53 ubiquitination”.
In the case of COc1cc([C@@H]2c3cc4c(cc3[C@@H](O[C@@H]3O[C@@H]5CO[C@@H](C)O[C@H]5[C@H](O)[C@H]3O)[C@H]3COC(=O)[C@H]23)OCO4)cc(OC)c1O [etoposide, reference compound], the “p53 levels in RKO and RKO-E6 cells” value [2] was “increased p53 in both cell lines” and the “etoposide-induced MdmX degradation” value [4] was “MdmX levels decreased substantially”.
In the case of COc1cccc2c1C(=O)c1c(O)c3c(c(O)c1C2=O)C[C@@](O)(C(=O)CO)C[C@@H]3O[C@H]1C[C@H](N)[C@H](O)[C@H](C)O1 [doxorubicin, doxorubicin hydrochloride, reference compound], the “p53 levels in RKO and RKO-E6 cells” value [2] was “increased p53 in both cell lines”, the “levels of endogenous and ectopically expressed Mdm2” value ([2]; p53-null H1299 cells) was “no effect on Mdm2 levels” and the “phosphorylation of p53 at serine-15” value [5] was “strongly induced”.
With C[C@@H]1C[C@@H]([C@H](O)CC2CC(=O)NC(=O)C2)C(=O)[C@@H](C)C1 [cycloheximide, reference compound] the “luminescence of the Mdm2-luciferase cell line” value [1] was “selectively decreased the luminescence of the Mdm2-luciferase protein”.
With CC[C@@]1(O)C(=O)OCc2c1cc1n(c2=O)Cc2cc3ccccc3nc2-1 [camptothecin, reference compound] the “p53 levels in RKO and RKO-E6 cells” value [2] was “increased p53 in both cell lines”.
For CCCC[C@@H](C=O)NC(=O)[C@H](CC(C)C)NC(=O)[C@H](CC(C)C)NC(C)=O [ALLN, N-Acetyl-Leu-Leu-Nle-CHO, reference compound] (Ac-Leu-Leu-[Nle]-aldehyde), the “etoposide-induced MdmX degradation” value [4] was “degradation could be prevented”.
